Test results from US12655092B2, “Precursor compounds of ester compounds” (University of Guelph, priority 2019, dated 2026).
Values joined by “and” are separate entries in the source; they are usually repeats but may differ in a detail not shown here. Equal values may be shown once. Marks after values point to notes of the source that are not given here.

Key:
[1] = Storage stability of the precursor at 25° C. under 0, 60 and 100% RH (EF release after storage); assay type: physicochemical
Experimental: The stability of the precursor was studied over a period of 30 days. The precursor was stored at 25° C. under 0, 60, and 100% RH. An environmental chamber (MLR-350H, Sanyo Electric Co., Ltd. Japan) was used to control the humidity levels and temperature. Samples from each condition were tested for EF release at 1, 15, and 30th day at 25° C. using 0.1 N citric acid solution as described above.

[2] = system: spotted-wing Drosophila (SWD) adults; experiment: Mortality of adult SWD on blueberries exposed to EF vapor released from the precursor; assay type: in vivo
Experimental: The EF precursor from Example 1 was activated using an acid-dispersed substrate (acidified substrate prepared in Example 1) and the moisture generated from fruit respiration to release EF vapor. In a model system utilized spotted-wing Drosophila (SWD), an invasive insect pest of many fruit crops, as the surrogate test organism. The mortality of adult SWD on blueberries was evaluated when they were exposed to the EF vapor released from the precursor. Different amounts of the EF precursor (2.5, 5.0, and 7.5 mg) were activated using the citric acid-dispersed substrate to release 1, 2, and 3 mg of EF, respectively, in a sealed 1 L glass jar containing 0, 20 or 40 g of blueberries and 10 adult SWD.

[3] = EF release from the precursor activated with 0.1 N citric acid solution, headspace GC analysis; assay type: physicochemical; conditions: for EF released: after 120 min
Experimental: (§1) The cumulative release of EF from the precursor was determined using an automatic headspace analysis system (FIG. 1). The system comprising of an environmental chamber (MLR-350H, Sanyo Electric Co., Ltd. Japan), a gas chromatograph (GC 6890, Agilent Technologies Inc., Santa Clara, CA, USA) equipped with a flame ionization detector (FID), stream selection valves (EMTCA-CE, VICI Valco Inst., Houston, TX, USA), 1/16 stainless steel tubing, and a control board (SRI Instruments Inc., Las Vegas, Nev., USA). The capillary column used with the GC was Agilent J&W DB-624 (Agilent Technologies Inc., Santa Clara, CA, USA) with 30 m length, 0.53 mm I.D, and 3 μm film thickness. The temperature of the detector and the oven were 200° C. and 40° C., respectively. The flow rates of N2, H2, and O2 were 30, 50, and 200 mL/min, respectively. The calibration curve was prepared by measuring standard headspace concentration of a known amount of EF. Chromatograms were analyzed using the Peak Simple software (393-32 bit, SRI Instruments, CA, USA). At any given sampling point, the total amount of EF released into the headspace (Mt, μL) was determined according to Eqs. 5 to 7 by the addition of the recorded amount (Mr, μL) and the accumulated loss (Ml, μL) of all the previous sampling points up to that point.
To activate the release of EF, two approaches were evaluated. In the first approach, 1-2 mg of the precursor was placed in a 10 mL, glass beaker inside a hermetically sealed 1 L, glass jar as shown in FIG. 1. The headspace gas was extracted through a septum attached to the jar lid at predetermined time intervals. EF release was triggered by distributing 1 mL of 0.1 N citric acid on the precursor particles using a pipette (Fisher Scientific, Ottawa, ON, Canada) just before closing the jar and attaching it to the sampling needle. The release of EF from the precursor was studied at 5, 15, and 25° C.
(§2) The release kinetics of EF from its precursor were modeled using an empirical pseudo-first order reaction kinetic model:
(§3) [formula] where Ce is the concentration of EF in the headspace of the 1 L test jar at an infinite time; C is the EF released at time, t; C0 is the EF initial concentration (which was equal to zero in our case); and k is the release rate constants. Non-linear regression analyses were conducted to fit the release data and determine the model parameters. Results and Discussion Ethyl Formate Precursor Formation

[4] = Dispersion of precursor particulates in water; assay type: physicochemical; conditions: 5 h of stirring
[5] = EF release from the precursor on citric acid-acidified nonwoven substrate at different RH, headspace GC analysis; assay type: physicochemical; conditions: 25° C.; for Ce / k: fitted model
Experimental: as §1
In the second study, the release of EF was evaluated using an acidified substrate which was prepared by impregnating 0.3 mL of 5% (w/v) citric acid/anhydrous ethanol solution into a 3×3 cm spun-bound polypropylene nonwoven, followed by drying it overnight at 40° C. The precursor (1-2 mg) was then spreaded on the top of the acidified nonwoven layer and exposed to the test relative humidity maintained in a hermetically 1 L glass jar using silica gel (0% RH) or saturated salt solutions (magnesium nitrate, 53% RH; sodium chloride, 75% RH; potassium nitrate, 94% RH) (FIG. 1) (ASTM Standard E104-02 2012; Greenspan, 1977). EF release, expressed in milligram of EF per milligram of precursor per litre of headspace air, was determined using the headspace analysis system described above.
as §2, §3

[6] = system: test insects in the wheat, split faba beans and sorghum bins; conditions: 85 g/t for 4 h followed by second 85 g/t treatment, unsealed metal bins; cited from earlier work
[7] = system: Rhizopus stolonifer, Colletotrichum musae, Erwinia carotovora, and Pseudomonas aeruginosa; conditions: EF vapor, agar medium; cited from earlier work
Penicillium digitatum = conditions: EF vapor 6.5-11.5 mmol/dish, agar medium; cited from earlier work
adult weevils = conditions: 50-55 g/m^3 headspace concentration at 4-8° C. for 24 h, apple; cited from earlier work
[8] = system: Saccharomyces rouxii and Saccharomyces mellis; conditions: EF at 3 mL/lb on Deglet Noor dates; cited from earlier work
[9] = 25 °C, fitted pseudo-first order model, listed as A
[10] = 25 °C, fitted pseudo-first order model, listed as B

In the case of `CCOC=NNC(=O)CCCCC(=O)NN=COCC` [EF precursor, diethyl N,N′-adipoyldiformohydrazonate], the “changes in the amount of EF released after storage” value ([1]; stored at 0% RH, days 1, 15 and 30) is reported as “no significant (p>0.05) changes”, the “reduction in EF release” value ([1]; stored at 60% RH, after 15 days) is reported as 18% and the “reduction in EF release” value ([1]; stored at 60% RH, after 30 days) is reported as 45%. For the same molecule, the “reduction in EF release” value ([1]; stored at 100% RH, 15 days) was 62%, the “reduction in EF release” value ([1]; stored at 100% RH, 30 days) was 81% and the mortality ([2]; after 2 h, 1 mg EF (2.5 mg precursor), 1 L jar with 40 g of blueberries) was 63%. It also gave a mortality ([2]; after 2 h, 1 mg EF, jars without blueberries) of 16%, a mortality ([2]; after 2 h, 3 mg EF (7.5 mg precursor), 1 L jar with 40 g of blueberries) of 96% and a mortality ([2]; after 2 h, 3 mg EF, jars without blueberries) of 60%. It also gave a mortality ([2]; at 4 h, all the concentrations) of 100%.
With `CCOC=NNC(=O)CCCCC(=O)NN=COCC` [Precursor A, diethyl N,N′-adipoyldiformohydrazonate] the EF released ([3]; 25 °C, listed as A) was 89.0 ± 1.5%, the Ce [3, 9] was 0.350 ± 0.005^a mg/mg · L and the k [3, 9] was 0.037 ± 0.000^a min^−1.
With `CCOC=NNC(=O)CCCCC(=O)NN=COCC` [Precursor B, diethyl N,N′-adipoyldiformohydrazonate] the Ce ([3]; 5 °C, fitted model) was 0.792 ± 0.004^c mg/mg · L, the k ([3]; 5 °C, fitted model) was 0.004 ± 0.001^d min^−1 and the Ce ([3]; 15 °C, fitted model) was 0.456 ± 0.014^a, b mg/mg · L. The k ([3]; 15 °C, fitted model) was 0.010 ± 0.000^c min^−1, the EF released ([3]; 25 °C, listed as B) was 97.9 ± 2.0% and the EF released ([3]; 25 °C, mg EF per mg precursor per L headspace) was 0.38±0.002 mg/mg · L and 0.382 ± 0.008^a mg/mg · L. The Ce [3, 10] was 0.389 ± 0.007^a, b mg/mg · L, the k [3, 10] was 0.030 ± 0.001^b min^−1 and the “dispersibility of precursor particulates in water” value [4] was “agglomerates presisted even after 5 h of stirring”. The EF release ([5]; 0% RH, acid-dispersed substrate) was “no release was observed”, the Ce ([5]; 53% RH) was 0.072 ± 0.013^c mg/mg · L and the k ([5]; 53% RH) was 0.006 ± 0.001^b min^−1. The Ce ([5]; 75% RH) was 0.200 ± 0.037^b mg/mg · L, the k ([5]; 75% RH) was 0.024 ± 0.004^a min^−1 and the Ce ([5]; 94% RH) was 0.333 ± 0.019^a mg/mg · L. The k ([5]; 94% RH) was 0.026 ± 0.002^a min^−1.
In the case of ethyl formate [EF], the insect control [6] is listed as “high level of control”, the germicidal concentration [7] is listed as 6.5-11.5 mmol/dish and the growth inhibition (Penicillium digitatum) is listed as “did not show complete inhibit”. The mortality (adult weevils) was 100% and the microbial growth inhibition [8] was “able to inhibit the microbial growth”.
